Reference: article PMC10706087, “The Subtype Selectivity in Search of Potent Hypotensive Agents among 5,5-Dimethylhydantoin Derived α1-Adrenoceptors Antagonists” (International Journal of Molecular Sciences, 2023)
Several values for one entry are separate records, joined by “and”; a condition that tells them apart may be missing. Equal entries are not always repeated.

Columns and labels:
[1] = molecular target: T1, human adrenergic receptor α1B (Homo sapiens, UniProt P35368); assay: Intrinsic activity, aequorin luminescence functional assay at α1B-AR; type: cell-based; conditions: for α1B-AR Profile: agonist/antagonist profile; for IC50: cells expressing aequorin and human α1B, against phenylephrine, means of three independent experiments in duplicates; for Selectivity Ratio α1A/α1B: selectivity for α1B-AR (IC50(α1A-AR)/IC50(α1B-AR))
T1 sequence (P35368 1-520): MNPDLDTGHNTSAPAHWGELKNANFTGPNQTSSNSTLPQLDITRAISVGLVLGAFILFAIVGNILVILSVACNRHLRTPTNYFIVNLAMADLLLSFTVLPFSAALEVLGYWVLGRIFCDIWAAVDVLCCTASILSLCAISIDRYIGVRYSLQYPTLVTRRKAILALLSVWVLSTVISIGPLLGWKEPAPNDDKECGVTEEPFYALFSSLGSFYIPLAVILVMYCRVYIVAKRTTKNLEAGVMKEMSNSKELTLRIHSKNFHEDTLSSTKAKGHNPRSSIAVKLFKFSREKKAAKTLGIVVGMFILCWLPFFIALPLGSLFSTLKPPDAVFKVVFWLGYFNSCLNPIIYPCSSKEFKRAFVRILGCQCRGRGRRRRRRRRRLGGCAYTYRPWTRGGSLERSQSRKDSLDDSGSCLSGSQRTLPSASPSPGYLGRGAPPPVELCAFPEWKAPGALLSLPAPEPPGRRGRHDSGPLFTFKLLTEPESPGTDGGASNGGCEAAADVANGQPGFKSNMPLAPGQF
Experimental: (§1) The subtype selectivity for α1A and α1B was calculated as IC50(α1B-AR)/IC50(α1A-AR) and IC50(α1A-AR)/IC50(α1B-AR) ratio, respectively.
(§2) Intrinsic activity at the α1-AR subtypes studies were performed using the cells expressing mitochondrially-targeted aequorin and one of the human adrenergic receptor α1A or α1B (PerkinElmer, Boston, MA, USA), according to the manufacturer’s instructions. For measurement, frozen cells were thawed and re-suspended in 10 mL of assay buffer containing 5 μM “Coelenterazine h”. This cell suspension was put in a 10 mL Falcon tube, fixed onto a rotating heel, and incubated overnight at rt in the dark (8 rpm; 45° angle). Cells were diluted with Assay Buffer to 5000 cells/20 μL. […] The light emitted was recorded for 20 s. Cells with antagonists were incubated for 15 min at room temperature. […] Luminescence was measured using the multidetection microplate reader (POLARstar Omega, BMG LABTECH, Ortenberg, Germany).
(§3) All statistics were performed using GraphPad Prism, Version 6.0 (GraphPad Software, San Diego, CA, USA). In the radioligand binding study, data were analyzed by a one-site curve-fitting equation, and inhibition constants (Ki) values were calculated via the Cheng-Prusoff equation [63]. In functional studies, data were analyzed using a sigmoidal dose-response (variable slope) equation. Arterial blood pressure data were analyzed using a two-way ANOVA with Sidak’s post-hoc test for multiple comparisons. A p < 0.05 was considered statistically significant.

[2] = molecular target: T2, human adrenergic receptor α1A (Homo sapiens, UniProt P35348); assay: Intrinsic activity, aequorin luminescence functional assay at α1A-AR; type: cell-based; conditions: for α1A-AR Profile: agonist/antagonist profile; for IC50: cells expressing aequorin and human α1A, against phenylephrine, means of three independent experiments in duplicates; for Selectivity Ratio α1B/α1A: selectivity for α1A-AR (IC50(α1B-AR)/IC50(α1A-AR))
T2 sequence (P35348 1-466): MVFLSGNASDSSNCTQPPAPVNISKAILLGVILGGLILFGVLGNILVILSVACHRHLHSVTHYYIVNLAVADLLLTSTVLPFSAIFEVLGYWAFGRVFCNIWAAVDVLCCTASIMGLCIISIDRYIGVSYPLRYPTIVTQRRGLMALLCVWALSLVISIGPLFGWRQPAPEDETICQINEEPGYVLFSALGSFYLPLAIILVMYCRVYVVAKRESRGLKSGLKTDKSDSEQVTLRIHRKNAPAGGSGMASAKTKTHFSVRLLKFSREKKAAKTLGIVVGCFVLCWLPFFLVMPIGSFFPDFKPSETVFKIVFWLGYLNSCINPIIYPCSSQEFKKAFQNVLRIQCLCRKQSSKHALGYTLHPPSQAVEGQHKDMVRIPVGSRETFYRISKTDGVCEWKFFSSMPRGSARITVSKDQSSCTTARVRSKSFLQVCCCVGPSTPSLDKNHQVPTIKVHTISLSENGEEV
Experimental: as §1, §2, §3

[3] = molecular target: α1-adrenoceptors (α1-ARs), rat cerebral cortex; assay: Radioligand binding assay with [3H]-prazosin, affinity for α1-ARs; conditions: three independent experiments in duplicates, read-out: α1-adrenoceptor affinity Ki
Experimental: In the first step, all synthesized compounds (1–15) were tested in vitro for their affinity for α1-ARs on rat cerebral cortex by the radioligand binding assay using [^3H]-prazosin as a specific radioligand.
The affinity for α1-ARs was determined by radioligand binding assay on rat cerebral cortex using [3H]-prazosin as a specific radioligand. The brains were homogenized in 20 volumes of an ice-cold 50 mM Tris-HCl buffer (pH 7.6) and were centrifuged (MPW Med. Instruments, Warsaw, Poland) at 20,000× g for 20 min (0–4 °C). The cell pellet was resuspended in the Tris-HCl buffer and centrifuged again. Radioligand-binding assay was performed in plates (MultiScreen/Millipore, Burlington, MA, USA). The final incubation mixture (final volume 300 μL) consisted of 240 μL of the membrane suspension, 30 μL of [3H]-Prazosin (0.2 nM) solution, and 30 μL of the buffer containing seven to eight concentrations (10^−11 to 10^−4 M) of the tested compounds. For measuring the unspecific binding, phentolamine, 10 μM (in the case of [3H]-Prazosin) was applied. The incubation was terminated by rapid filtration over glass fiber filters (Whatman GF/C, Sigma-Aldrich) using a vacuum manifold (Millipore). The filters were then washed twice with the assay buffer and placed in scintillation vials with a liquid-scintillation cocktail. Radioactivity was measured in a WALLAC 1409 DSA liquid-scintillation counter (BioSurplus, San Diego, CA, USA).
as §3

[4] = test system: arterial blood pressure of normotensive Wistar rats; assay: Influence on blood pressure in normotensive anesthetized rats after i.v. administration; type: in vivo, rat; conditions: for Diastolic blood pressure / Systolic blood pressure: 2.0 mg/kg i.v., mean, n = 6; for effect on systolic and diastolic blood pressure (in words): i.v., normotensive anesthetized rats
Experimental: In the next step, the hypotensive activity of novel compounds 1–3, 5–9, and 11–14 was determined after i.v. administration to normotensive anesthetized rats. All results are shown in Supplementary Table S1.
The normotensive rats were anesthetized with thiopental (75 mg/kg) by intraperitoneal injection (i.p.). The left carotid artery was cannulated with a polyethylene tub filled with heparin in saline to facilitate pressure measurements using a PowerLab Apparatus (ADInstruments, Sydney, Australia). Blood pressure was measured immediately before administration of the tested compounds or vehicle—time 0 min (initial blood pressure) and 60 min thereafter. Initial blood pressure before administration of the tested chemicals in all experimental groups was similar. The tested compounds were dissolved in a specific vehicle: ethyl alcohol 5% − kolliphor 5% − water 90%. All tested chemicals were administrated intravenously (i.v.) at a constant volume of 1 mL/kg after 20 min of stabilization period. The compounds were tested at a starting dose of 2 mg/kg. If the hypotensive activity was found, the dose was reduced by half. The dosing was continued until the hypotensive effects disappeared. Urapidil was used as a reference compound.
as §3

[5] = 0 min (initial, before administration)

α1B-AR Profile [1]	IC50 [1]	Selectivity Ratio α1A/α1B [1]	α1A-AR Profile [2]	IC50 [2]	Selectivity Ratio α1B/α1A [2]	Ki [3]	SMILES	Diastolic blood pressure [4, 5]	Systolic blood pressure [4, 5]	Diastolic blood pressure ([4]; 5 min)	Systolic blood pressure ([4]; 5 min)	Diastolic blood pressure ([4]; 10 min)	Systolic blood pressure ([4]; 10 min)	Diastolic blood pressure ([4]; 20 min)	Systolic blood pressure ([4]; 20 min)	Diastolic blood pressure ([4]; 30 min)	Systolic blood pressure ([4]; 30 min)	Diastolic blood pressure ([4]; 40 min)	Systolic blood pressure ([4]; 40 min)	Diastolic blood pressure ([4]; 50 min)	further results
Antagonist	< 100 nM and < 11 nM and 10.7 nM	8.46	Antagonist	< 100 nM and 90.6 nM	0.12	31 nM	COc1ccccc1N1CCN(CCCN2C(=O)N(Cc3ccc(Cl)cc3Cl)C(=O)C2(C)C)CC1.Cl [Compound 1, 3-(2,4-dichlorobenzyl)-1-(3-(4-(2-methoxyphenyl)piperazin-1-yl)propyl)-5,5-dimethylimidazolidine-2,4-dione hydrochloride]	101.0	133.3	88.3	120.3	82.3	113.0	82.2	112.2	81.3	114.2	80.8	114.7	81.7	Systolic blood pressure ([4]; 50 min): 116.0; Diastolic blood pressure ([4]; 60 min): 83.3; Systolic blood pressure ([4]; 60 min): 117.5; effect on systolic and diastolic blood pressure (in words) [4]: statistically significant reduction; melting point: 201 to 203 °C
Antagonist	1150 nM	1.51	Antagonist	1730 nM	0.66	535 nM	CC1(C)C(=O)N(Cc2ccc(Cl)cc2Cl)C(=O)N1CCCN1CCN(c2cccc(Cl)c2Cl)CC1.Cl [Compound 2, 3-(2,4-dichlorobenzyl)-1-(3-(4-(2,3-dichlorophenyl)piperazin-1-yl)propyl)-5,5-dimethylimidazolidine-2,4-dione hydrochloride]	100.7	129.3	98.5	126.7	96.8	124.2	92.8	121.7	90.3	121.2	89.3	120.2	88.0	Systolic blood pressure ([4]; 50 min): 120.3; Diastolic blood pressure ([4]; 60 min): 88.0; Systolic blood pressure ([4]; 60 min): 119.3; melting point: 185 to 187 °C
Antagonist	< 11 nM and 3.27 nM	88.73	Antagonist	290 nM	0.01	43 nM	CC1(C)C(=O)N(Cc2ccc(Cl)cc2Cl)C(=O)N1CCCCCN1CCN(c2ccccc2)CC1.Cl [Compound 3, 3-(2,4-dichlorobenzyl)-5,5-dimethyl-1-(5-(4-phenylpiperazin-1-yl)pentyl)imidazolidine-2,4-dione hydrochloride]	93.7	132.2	90.3	123.3	81.2	113.7	81.7	113.0	83.2	116.3	82.7	116.3	84.2	selectivity for α1B-AR over α1A-AR ([1]; from IC50 ratio): ~ 90 fold; Systolic blood pressure ([4]; 50 min): 120.3; Diastolic blood pressure ([4]; 60 min): 83.8; Systolic blood pressure ([4]; 60 min): 119.7; effect on systolic and diastolic blood pressure (in words) [4]: statistically significant reduction; melting point: 218 to 220 °C
